PMC9256669, “Monomethyl auristatin antibody and peptide drug conjugates for trimodal cancer chemo-radio-immunotherapy” (Nature Communications, 2022)
Values joined by “and” are separate entries in the source; they are usually repeats but may differ in a detail not shown here. Equal entries are not always repeated. “Also recorded” adds a separate entry of the source. Non-standard residues stand in square brackets, D forms with d. Residues, ends and D or L forms follow the SMILES beside them. *: point of attachment. Dolaproine = CO[C@@H]([C@@H]1CCCN1)[C@@H](C)C(=O)O; Dil = CC[C@H](C)[C@H](NC)[C@@H](CC(=O)O)OC; X1 = C[C@@H](N*)[C@@H](O)c1ccccc1; NMeV = CN[C@H](C(=O)O)C(C)C

Experiments:
[1] = test system: B16 tumors; format: in vivo, C57BL/6 mice
Protocol: At harvest, tumors were isolated, minced, and re-suspended in FBS-free DMEM media supplemented with components of MACs tumor dissociation kit. Tissues were incubated for 15 min at 37 °C and mechanically digested using the gentle MACs Octo dissociator. Tissue suspensions were washed with fresh media and passed through a 100-µm strainer. Samples were split in half for immediate staining or stimulated with the Biolegend Cell Activation Cocktail (with Brefeldin A) for 3 h. Samples were washed with PBS and immediately processed for live/dead cell discrimination using BD LIVE/DEAD™ Fixable Blue Dead Cell Stain Kit. Cells were washed and stained for surface markers for 30 min at 4 °C. Intracellular staining was performed using the eBioscience FOXP3/Transcription Factor Buffer Set from Invitrogen and stained with intracellular antibodies. […] All antibodies were validated by the supplier. All flow cytometry data acquisition was done using BD LSRFortessa and analyzed using FlowJo software. Immune cells were identified by the following characteristics: cytotoxic T cells (CD45+Thy1.2+CD8+), helper T cells (CD45+Thy1.2+CD4+), NK cells (CD45+Thy1.2−NK1.1+).
FSC-A FSC-H SCC-H Live Dead-Blue
Representative flow cytometry plots to gate immune cells quantitated in Fig. 4a, b, 4d &
Supplementary Fig. 10b, c. b) Quantification of tumor immune cell identified by flow cytometry on
Tumors harvested on day 19 and immune cells characterized by flow cytometry. c) Tumor
Mice implanted with tumor
(§1) Source data are provided in Source Data file.

[2] = test system: B16 tumors; assay: Subcutaneous tumor therapy with CD8 T cell depletion; format: in vivo, C57BL/6 mice; settings: MMAE conjugate + IR, anti-CD8 antibody 10 mg/kg vs control
Protocol: (§5) MOC1, B16, LL/2, and MC38 tumor cells were injected subcutaneously into the hindlimbs of 6-week-old female C57BL/6 albino mice in 100 µl of 1:1 Matrigel (BD) and PBS solution. Fractionated IR was delivered focally to the tumor-bearing hindlimbs (3 Gy to MC38 tumors and 5 Gy to LL/2 and B16 tumors) as indicated in figure legends using a PXI X-RAD 225 XL irradiator at maximal dose rate of 3 Gy/min with a beam-conditioning aluminum filter (Precision X-ray Irradiation). For RAG1 KO studies, 6-week-old female Rag1^tm1Mom mice were injected subcutaneously with tumor cells in their hindlimbs (Jackson Labs). For CD8 depletion studies, mice were i.p. injected with anti-CD8 (BioXCell #BE0117) at 10 mg/kg on days −6, −5 and −4 tumor cell implant and then weekly starting on day after tumor cells were injected or control antibody. […] Tumor volumes were measured and calculated using the formula as ½ * length * width^2. Mice were sacrificed when tumor volume reached >1500 mm^3, maximal tumor volume approved on our protocol for subcutaneous tumors.

[3] = test system: MOC1; assay: Cytotoxicity, Alamar Blue assay; format: cell-based, murine; settings: for sensitivity in cell culture, Alamar Blue assay: MOC1 and MOC2 cells, cell viability at 72 hr of drug exposure, CDX3379 at nM dosing
Protocol: Murine colorectal (MC38 (ENH204-FP)) cancer cell lines were obtained from Kerafast. Murine head and neck MOC1 and MOC2 were generously provided by Dr. R. Uppaluri. CAL27 PIK3CA H1047R expressing cells and 4MOSC1 cells were generated in Dr. Gutkind’s laboratory and previously characterized[42],[55]. […] MC38 cells were cultured in DMEM supplemented with 10% FBS, 1 mM sodium pyruvate (Gibco), 1% non-essential amino acids (Gibco), and 10 mM HEPES (Gibco). MOC1 and MOC2 cells were cultured in IMDM (Lonza)/F-12K nutrient mixture at a 2:1 mixture with 5% FBS, 5 ng/ml EGF (EMD Millipore), 400 ng/ml hydrocortisone (Sigma), and […] insulin (Sigma). On receipt, each cell line was expanded, cryopreserved as low passage stocks, and routinely tested for mycoplasma. Cisplatin (Enzo Biosciences), paclitaxel (Sigma), and MMAE (Concortis) were reconstituted in DMSO. […] Clinical grade cetuximab (Erbitux, Lilly Medical) was obtained from UCSD Moores Cancer Center Pharmacy.
(§2) Cells were plated in 96-well plates and exposed to a drug concentration range for 72 h. Alamar Blue was added to the cells and allowed to incubate for 2–4 h at 37 °C. Plates were analyzed using a plate reader with fluorescence measured at 560 nm. Fractional survival was normalized to untreated control cell fluorescent values. Drug IC50 was calculated using Prism software (GraphPad, La Jolla, CA). Cell viability, cytotoxicity and apoptosis were also measured by ApoTox-Glo Triplex Assay (Promega).
measured by Alamar Blue assay. For Alamar Blue assay cytotoxicity, we measured cell viability at 72 hr of […]

[4] = test system: B16 tumors; assay: Subcutaneous tumor therapy, ADC monotherapy, mouse survival; format: in vivo, C57BL/6 mice
Protocol: as §5

[5] = test system: B16 tumors; assay: Subcutaneous tumor therapy, CDX3379-MMAE or CDX3379-MMAF with IR, mouse survival; format: in vivo, C57BL/6 mice
Protocol: as §5

[6] = test system: CAL27 and Detroit 562 tumor xenografts; settings: immune-deficient mice with HER3 expressing human tumor xenografts
Protocol: (§3) All animal work was done in compliance with the University of California San Diego Institutional Animal Use and Care Committee under protocol #S15290. Mice were housed in individually ventilated and micro-isolator cages supplied with acidified water and fed 5053 irradiated PicoLab Rodent Diet 20. Temperature for laboratory mice in housing was 18–23 °C with humidity 40–60%. Housing room is maintained on a 12-h light/dark cycle. […] For imaging, mice were anesthetized (1:1 mixture of 100 mg/ml of ketamine and 5 mg/ml of midazolam). Animals were imaged using a Maestro Small Animal Imager (CRI) with excitation filter of 607/36 and 633 nm long pass emission filter with dichroic filter tuned to 670 nm for Cy5 images only. Imaging was done both with skin on and after skin removal to decrease autofluorescence and scattering. Exposure time for Cy5 signal capture for tumor models was as follows: CAL27 for 800 ms, MOC1 for 200 ms and MOC2 for 1500 ms.
as §1

[7] = test system: MOC1, MOC2 and LL/2 tumors; settings: immune-competent mice, not in HER3 negative LL/2 tumors
Protocol: as §3, §1

[8] = test system: 4MOSC1; assay: Cytotoxicity, Alamar Blue assay; format: cell-based, murine; settings: 4MOSC1, 72 h drug exposure, one value per biological replicate, read-out: IC50 values
Protocol: (§4) Murine colorectal (MC38 (ENH204-FP)) cancer cell lines were obtained from Kerafast. Murine head and neck MOC1 and MOC2 were generously provided by Dr. R. Uppaluri. CAL27 PIK3CA H1047R expressing cells and 4MOSC1 cells were generated in Dr. Gutkind’s laboratory and previously characterized[42],[55]. […] MC38 cells were cultured in DMEM supplemented with 10% FBS, 1 mM sodium pyruvate (Gibco), 1% non-essential amino acids (Gibco), and 10 mM HEPES (Gibco). MOC1 and MOC2 cells were cultured in IMDM (Lonza)/F-12K nutrient mixture at a 2:1 mixture with 5% FBS, 5 ng/ml EGF (EMD Millipore), 400 ng/ml hydrocortisone (Sigma), and […] insulin (Sigma). On receipt, each cell line was expanded, cryopreserved as low passage stocks, and routinely tested for mycoplasma. Cisplatin (Enzo Biosciences), paclitaxel (Sigma), and MMAE (Concortis) were reconstituted in DMSO. Clinical-grade CDX3379 was provided by Celldex. Clinical grade cetuximab (Erbitux, Lilly Medical) was obtained from UCSD Moores Cancer Center Pharmacy.
as §2

[9] = test system: B16; assay: Cytotoxicity, Alamar Blue assay; format: cell-based, murine; settings: B16, 72 h drug exposure, one value per biological replicate, read-out: IC50 values
Protocol: as §4, §2

[10] = test system: MC38; assay: Cytotoxicity, Alamar Blue assay; format: cell-based, murine; settings: MC38, 72 h drug exposure, one value per biological replicate, read-out: IC50 values
Protocol: as §4, §2

| Compound | Flow cytometry, CD4+ ([1]; mouse, in vivo) | Flow cytometry, CD45+ ([1]; mouse, in vivo) | Flow cytometry, CD45 negative ([1]; mouse, in vivo) | Flow cytometry, NK cells ([1]; mouse, in vivo) | effect of CD8 T cell depletion on tumor control [2] | sensitivity in cell culture, Alamar Blue assay [3] | anti-tumor activity as measured by mouse survival [4] | tumor control and survival, + IR ([5]; B16, 2.5 nmoles ADC x 2 doses + IR 5 Gy x 3) | Mouse survival, status ([5]; with IR, individual mice, status at the day, Figure 3h) | tumor CD8 T cell infiltration, with IR ([1]; B16 tumors, flow cytometry, drug + IR) | Flow cytometry (Figure 4b) ([1]; without IR, individual tumors) | localization of i.v. injected Cy5-labeled ADC [6] | localization of i.v. injected Cy5-labeled ADC [7] | IC50 [8] | IC50 [9] | IC50 [10] | IC50 ([3]; MOC1, 72 h drug exposure, Alamar Blue, one value per biological replicate, read-out: IC50 values) |
| --- | --- | --- | --- | --- | --- | --- | --- | --- | --- | --- | --- | --- | --- | --- | --- | --- | --- |
| cyclo(RGD)fc-MC-HN-peg8-e9-oPLGC(Me)AG-r9-c-(MC-VC-PABC-MMAE)-CONH2 [ACPP-MMAE] | 0.17 and 0.11 | 9.46 and 7.71 | 89.90 and 91.80 | 0.17 and 0.11 | abrogated durable tumor control |  |  |  |  |  |  |  |  |  |  |  |  |
| CDX3379-MMAE: anti-HER3 antibody CDX3379 with 4 MMAE per antibody via MC-VC-PABC linker, labeled with Cy5 |  |  |  |  | significantly larger | sensitive | modest anti-tumor activity | prolonged tumor control and survival; also recorded: superior to CDX3379-MMAF | 1 and 0 | significantly increased CD8 tumor cell infiltration | 3.89 and 16.51 and 9.62 | localized to tumor bearing hindlimbs | localized to HER3 expressing murine syngeneic tumors |  |  |  |  |
| CC[C@H](C)[C@@H]([C@@H](CC(=O)N1CCC[C@H]1[C@H](OC)[C@@H](C)C(=O)N[C@H](C)[C@@H](O)c1ccccc1)OC)N(C)C(=O)[C@@H](NC(=O)[C@@H](NC)C(C)C)C(C)C [MMAE, monomethyl auristatin E] (H-[NMeV]V[Dil][Dolaproine]-X1) |  |  |  |  |  | sensitive |  |  |  |  |  |  |  | 1.82 nM and 1.52 nM | 1.77 nM and 2.33 nM and 1.94 nM and 3.12 nM | 14.4 nM and 14.9 nM and 30.4 nM | 7.93 nM and 8.71 nM and 8.36 nM and 9.59 nM |
